US20230052740A1, “MODULATORS OF CIRCADIAN RHYTHMS AND USES THEREOF” (The Regents of the University of California, priority 2019, published 2023)
Read-outs that look alike come from different tables or passages of the source.

Columns and labels:
hMT1 = hMT1 (Homo sapiens, UniProt P48039); assay: cAMP assay (GloSensor), isoproterenol-stimulated cAMP in HEK cells; assay type: cell-based; set-up: expressed in transfected cells; host or cells: HEK-T (HEK-293 T) cells, co-transfected with GloSensor DNA; conditions: for hMT1 pEC50: FIG. 3D-3F, transiently expressed receptor, isoproterenol-stimulated cAMP production; for inverse agonist efficacy: at MT1; for selectivity for MT1 over MT2: cAMP, inverse agonists
Sequence of hMT1 (P48039 whole entry): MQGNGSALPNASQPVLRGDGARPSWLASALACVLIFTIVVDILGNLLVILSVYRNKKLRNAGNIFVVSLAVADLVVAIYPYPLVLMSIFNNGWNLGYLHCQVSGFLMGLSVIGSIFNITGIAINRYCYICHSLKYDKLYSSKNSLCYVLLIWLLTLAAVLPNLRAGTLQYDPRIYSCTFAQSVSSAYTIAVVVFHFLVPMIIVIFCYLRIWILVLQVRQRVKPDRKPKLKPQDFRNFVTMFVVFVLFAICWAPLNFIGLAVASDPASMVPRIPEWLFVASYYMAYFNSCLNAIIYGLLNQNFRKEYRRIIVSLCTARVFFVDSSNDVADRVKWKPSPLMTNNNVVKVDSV
Description: HEK-293 T cells were maintained with complete Dulbecco's modified Eagle's medium (DMEM), which is composed of 10% fetal bovine serum (FBS), 2 mM L-glutamine, 100 units/ml penicillin G, 100 μg/ml streptomycin at 37° C. in the presence of 5% CO2
(§1) MT1 and MT2 receptors were tested using Promega's spilt luciferase based GboSensor cAMP biosensor technology. HEK-T cells were plated in 15 cm cell culture dish (at a density of 18 million cells) containing DMEM composed of 10% dialyzed FBS, 2 mM L-glutamine, 100 units/ml penicillin G, 100 μg/ml streptomycin for 4-6 hour. Then, cells were co-transfected with 8 μg of construct which encodes either MT1 or MT2 (de-Tangonized constructs) and […] of Glosensor DNA. Next day, transfected cells were seeded into poly-L-lysinecoated 384-well white clear bottom cell culture plates with complete DMEM with 1% dialized FBS at a density of 20,000 cells per well for another 24 h. The next day, cell medium were discarded and loaded with 20 μl of assay buffer (1×HBSS, 20 mM HEPES, pH 7.4, 0.1% BSA). To measure agonist activity of MT1 or MT2 receptor, 10 μl of test compound solution at 3× final concentration was added for 15 minutes followed by addition of 10 μl of luciferin/isoproterenol mixture (at a final concentration of 4 mM and 200 nM respectively) for another 15 mins for luminescence quantification. Then, plates were counted using SpectraMax luminescence reader (Molecular Device). Data were analyzed using GraphPad Prism 6.0.

MT2 = molecular target: T1, MT2 (Homo sapiens, UniProt P49286); assay: as above; assay type: cell-based; set-up: expressed in transfected cells; host or cells: HEK-T (HEK-293 T) cells, co-transfected with GloSensor DNA; conditions: for hMT2 pEC50: FIG. 3D-3F, transiently expressed receptor, isoproterenol-stimulated cAMP production; for hMT2 Schild slope / hMT2 pKB: Schild analysis, competitive antagonism of melatonin
T1 sequence (P49286 1-362): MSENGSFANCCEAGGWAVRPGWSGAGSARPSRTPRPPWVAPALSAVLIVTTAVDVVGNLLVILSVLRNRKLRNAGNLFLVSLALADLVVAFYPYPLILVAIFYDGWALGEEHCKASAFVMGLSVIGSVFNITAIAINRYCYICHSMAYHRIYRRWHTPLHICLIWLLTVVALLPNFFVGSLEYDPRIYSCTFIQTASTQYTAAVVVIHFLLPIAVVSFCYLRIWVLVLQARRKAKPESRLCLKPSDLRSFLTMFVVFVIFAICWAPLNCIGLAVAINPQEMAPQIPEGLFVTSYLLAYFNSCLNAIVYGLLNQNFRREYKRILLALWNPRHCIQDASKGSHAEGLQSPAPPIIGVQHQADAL
Description: as §1, with “Next day, transfected cells were seeded into poly-L-lysinecoated 384-well white clear bottom cell culture plates with complete DMEM with 1% dialized FBS at a density of 20,000 cells per well for another 24 h.” left out

[1] = FIG. 3D-3E, normalized to isoproterenol-stimulated basal activity
[2] = Schild analysis, competitive antagonism of melatonin
[3] = Table 2, cell marked Inverse (inverse agonist)
[4] = inverse agonist, increase of basal cAMP, read-out: EC50 at MT1

`COc1ccc(Br)c(CNc2cccnc2)c1` [ZINC128734226] was tested, and the “hMT1 pEC50” value (hMT1) was 6.83±0.17, the Emax (hMT1; HEK293, FIG. 3F, normalized to maximal melatonin effect, read-out: hMT1 Emax) was 79 ± 3% and the Emax (hMT1; HEK293, Table 2, agonist, normalized to melatonin response, read-out: MT1 % Emax (converted)) was 79%. The Emax (hMT1; HEK293, Table 4, agonist, read-out: Emax % MT1) was 48%, the “pIC50 MT1” value (hMT1; Table 4, agonist) was 6.8 and the “hMT2 pEC50” value (MT2) was 8.15±0.09. For the same compound, the Emax (MT2; HEK293, FIG. 3F, normalized to maximal melatonin effect, read-out: hMT2 Emax) was 89 ± 3%, the Emax (MT2; HEK293, Table 2, agonist, normalized to melatonin response, read-out: MT2 % Emax (converted)) was 89% and the Emax (MT2; HEK293, Table 4, agonist, read-out: Emax % MT2) was 80%. The “pIC50 MT2” value (MT2; Table 4, agonist) was 8.2 and the EC50 (MT2; agonist, isoproterenol-stimulated cAMP inhibition, read-out: EC50 at MT2) was 6.3 nM.

With `CC(C)c1ccc(CNc2cccc(-c3ncn[nH]3)c2)cc1` [ZINC157673384] the “hMT1 Emax” value (hMT1; [1]) was −47±12%, the “hMT1 pEC50” value (hMT1) was 7.68±0.09 and the “hMT1 Schild slope” value (hMT1; [2]) was 0.80±0.04. The “hMT1 pA2” value (hMT1; [2]) was 7.9±0.1, the “MT1 % Emax” value (hMT1; [3]) was 47 ± 12% and the “pEC50 MT1 (IA)” value (hMT1; Table 4, IA (inverse agonist)) was 7.7. For the same compound, the inverse agonist efficacy (hMT1) was 47%, the “selectivity for MT1 over MT2” value (hMT1) was 30 fold and the EC50 (hMT1; [4]) was 21 nM. For the same compound, the “hMT2 Emax” value (MT2; [1]) was −153±14%, the “hMT2 pEC50” value (MT2) was 6.18±0.04 and the “hMT2 Schild slope” value (MT2) was 1.0±0.1. For the same compound, the “hMT2 pKB” value (MT2) was 6.7±0.1, the “MT2 % Emax” value (MT2; [3]) was 153 ± 14% and the “pEC50 MT2 (IA)” value (MT2; Table 4, IA (inverse agonist)) was 6.5.

`Clc1ccc(CNc2cccc(-c3nnc[nH]3)c2)c(Br)c1` [ZINC555417447] was tested, and the “hMT1 pEC50” value (hMT1) was 7.39±0.10, the Emax (hMT1; HEK293, FIG. 3D-3E, normalized to isoproterenol-stimulated basal activity, read-out: hMT1 Emax) was -62 ± 13% and the Emax (hMT1; HEK293, Table 2, cell marked Inverse (inverse agonist), read-out: MT1 % Emax (converted)) was 62%. The “hMT1 Schild slope” value (hMT1; [2]) was 0.98±0.03, the “hMT1 pKB” value (hMT1; [2]) was 7.4±0.1 and the EC50 (hMT1; Table 4, IA (inverse agonist), read-out: pEC50 MT1 (IA) (converted)) was 50.1 nM. For the same compound, the inverse agonist efficacy (hMT1) was 62%, the “selectivity for MT1 over MT2” value (hMT1) was 50 fold and the EC50 (hMT1; [4]) was 41 nM. The “hMT2 pEC50” value (MT2) was 5.66±0.10, the Emax (MT2; HEK293, FIG. 3D-3E, normalized to isoproterenol-stimulated basal activity, read-out: hMT2 Emax) was -84 ± 9% and the Emax (MT2; HEK293, Table 2, cell marked Inverse (inverse agonist), read-out: MT2 % Emax (converted)) was 84%. The “hMT2 Schild slope” value (MT2) was 1.3±0.4, the “hMT2 pKB” value (MT2) was 6.2±0.1 and the EC50 (MT2; Table 4, IA (inverse agonist), read-out: pEC50 MT2 (IA) (converted)) was 1000 nM.
